# Data taken from US20230338270A1, “COSMETIC COMPOSITION FOR SKIN IMPROVEMENT COMPRISING, AS ACTIVE INGREDIENTS, POLYSACCHARIDES, YEAST EXTRACT, AND STRAIN FERMENTATION PRODUCT WITH CHARACTERISTICS OF PROBIOTICS” (LG HOUSEHOLD & HEALTH CARE LTD., priority 2020, published 2023).
# Tests used:
# Format in all cases: cell-based
# [1] = system: Staphylococcus epidermidis (S. epidermidis); test: Effect on growth of beneficial bacteria (optical density after culture in TSB); details: for Effect on increase in beneficial bacteria (in words): Table 7; for Beneficial bacteria (S. epidermidis), average degree of increase or decrease compared to the untreated group: inoculated at a concentration of 1%, rotary culture 37° C. 16 hours
# [2] = system: Staphylococcus aureus (S. aureus); test: Effect on growth of harmful bacteria (optical density after culture in TSB); details: for Effect on reduction in harmful bacteria (in words): Table 7; for Harmful bacteria (S. aureus), average degree of increase or decrease compared to the untreated group: inoculated at a concentration of 1%, rotary culture 37° C. 16 hours
# [3] = system: human skin fibroblasts; test: Collagen biosynthesis rate (procollagen type I C-peptide EIA kit); details: 10 ng/mL, 48 hours, control group
# Procedure: The effect of the complexes of Preparation Examples on the collagen biosynthesis rate in the human skin fibroblasts was identified. Skin fibroblasts were cultured in complete DMEM culture at 37° C. in the presence of 5% carbon dioxide for 72 hours. After seeding in a 24-well plate, culture was performed at 37° C. in the presence of 5% carbon dioxide for 24 hours. After treating the complexes according to Preparation Examples and culturing at 37° C. in the presence of 5% carbon dioxide for 48 hours, only the supernatant was separated, and the collagen synthesis effect was observed by absorbance using a procollagen type I C-peptide (PIP) EIA kit.
# Collagen biosynthesis increase rate (%) = {(Absorbance of complex treated group -Absorbance of untreated group) / Absorbance of untreated group} × 100
# 10 ng/mL of TGF-β, a cytokine, was used as a control group.
# [4] = system: human dermal papilla cells; test: Activity of dermal papilla cells (CCK-8, optical density at 450 nm); details: 1 µM, control group
# Procedure: In order to identify the effect of the complexes of Preparation Examples on dermal papilla cells, human dermal papilla cells (Promocell, C-12071) in the 4-8 passage were used as a cell line, and follicle dermal papilla cell growth media (Promocell, C-26501) were used as an initial culture medium.
# Cells were seeded at a level of 3,000 to 6,000 cells per well in a 96-well plate, and cultured in an incubator at 37° C. in the presence of 5% carbon dioxide for 24 hours. Thereafter, the culture medium was replaced with DMEM medium supplemented with 0.1% fetal bovine serum (FBS) and cultured in an incubator at 37° C. in the presence of 5% carbon dioxide for 24 hours. Thereafter, the culture medium was replaced with DMEM supplemented with 0.1% FBS treated with the complexes according to Preparation Examples 1 to 7 by each concentration, followed by culture in an incubator at 37° C. in the presence of 5% carbon dioxide for 48 hours. After treating 10 µl of CCK-8 solutions per well, culture was performed at 37° C. for 1 hour, and optical density was measured at 450 nm.
# The difference between the optical density measurement value and the initial measurement value after 48 hours for each well was standardized by dividing the difference by the initial measurement value for evaluation, and the average value was shown in Table 8 below. 1 µM minoxidil was treated as a control group. […]
# [5] = system: mouse Raw 264.7 cell line; test: Suppression of inflammatory factor NO (Griess reagent, LPS-treated cells); details: 20 µg/mL, 1 µg/mL LPS, 24 hours, control group
# Procedure: In order to identify the effect of the complexes of Preparation Examples on the production of NO as an inflammatory factor in cells, a mouse Raw 264.7 cell line was used, and a culture medium whose final pH was adjusted to 8.5 through addition of NaOH to Complete RPMI (RPMI:FBS:antibiotic = 10:1:0.1) was used as an initial culture medium.
# When the Raw 264.7 cells appeared at the top of the culture medium after culture at 37° C. in the presence of 5% carbon dioxide for 24 hours, the cells were seeded in a 24-well plate in which a DMEM culture was prepared, followed by culture at 37° C. in the presence of 5% carbon dioxide for 24 hours. Thereafter, treatment was performed after diluting the complexes according to Preparation Examples 1 to 7 by the following concentrations while replacing the medium with a serum-free DMEM culture medium, followed by additional treatment of 1 µg/mL of LPS. After culture at 37° C. in the presence of 5% carbon dioxide for 24 hours, the supernatant was mixed with Griess reagent (Sigma-Aldrich) in a ratio of 1:1 to evaluate the ability to inhibit NO production with absorbance, and the average value was shown in Table 9 below.
# NO production inhibition ability (%) = {1 - (NO production when compound is added / NO production in untreated group)} × 100
# 20 µg/mL of L-NMMA1 (N^G-Methyl-L-arginine acetate salt), an NO inhibitor, was used as a control group.
Compound,Effect on increase in beneficial bacteria (in words) [1],"Beneficial bacteria (S. epidermidis), average degree of increase or decrease compared to the untreated group [1] [%]",Effect on reduction in harmful bacteria (in words) [2],"Harmful bacteria (S. aureus), average degree of increase or decrease compared to the untreated group [2] [%]","Collagen biosynthesis increase rate, Average [3] [%]","Dermal papilla cell activity, Average (optical density difference after 48 hours divided by initial value) [4]","NO production inhibition ability, Average [5] [%]"
Maltodextrin,no significant effect,0.14,no significant effect,1.43,,,
Inulin,no significant effect,0.29,no significant effect,-0.84,,,
Beta-glucan,no significant effect,-0.26,no significant effect,-0.78,,,
TGF-β,,,,,36.6,,
"Nc1cc(N2CCCCC2)nc(N)[n+]1[O-] [Minoxidil, minoxidil]",,,,,,44.2,
"CC(=O)O.CNC(=N)NCCC[C@H](N)C(=O)O [L-NMMA1, N^G-Methyl-L-arginine acetate salt]",,,,,,,52.1
